Assay: log P by HPLC on reversed-phase column (C18), EEC Directive 79/831 Annex V.A8
Type: physicochemical
Conditions: Method A: 40° C., 0.1% aqueous formic acid and acetonitrile
Method: In table 1, the log P values were determined in accordance with EEC Directive 79/831 Annex V.A8 by HPLC (High Performance Liquid Chromatography) on a reversed-phase column (C18), using the methods described below:
Method A: temperature: 40° C.; mobile phases: 0.1% aqueous formic acid and acetonitrile; linear gradient from 10% acetonitrile to 95% acetonitrile;
Method B: temperature: 40° C.; mobile phases: 0.001 molar ammonium acetate solution in water and acetonitrile; linear gradient from 10% acetonitrile to 95% acetonitrile.
Calibration was carried out using unbranched alkan-2-ones (comprising 3 to 16 carbon atoms) with known log P values (determination of the log P values by the retention times using linear interpolation between two successive alkanones). lambda-max-values were determined using UV-spectra from 200 nm to 400 nm and the peak values of the chromatographic signals.
Work on `Cc1nc2ccccc2cc1Oc1cccc(OC(F)(F)F)c1Br` [IIa.25] yielded a logP of 4.30.

Same assay, conditions: logP Method A
In the case of `Fc1ccc2nc(Oc3ccccc3Br)cnc2c1F` [IIb.01], the logP is reported as 3.92.
`Cc1nc2c(F)c(F)ccc2nc1Oc1ccccc1Br` [IIb.02] gave a logP of 4.38.
Molecule `Cc1cccc(Br)c1Oc1nc2ccc(F)c(F)c2nc1C` [IIb.03] has a logP of 4.80.
Work on `Cc1nc2c(F)c(F)ccc2nc1Oc1c(F)cccc1Br` [IIb.04] yielded a logP of 2.67.
In the case of `Cc1nc2c(F)c(F)ccc2nc1Oc1c(Cl)cccc1Br` [IIb.05], the logP is reported as 4.87.
For `Cc1ccc(Oc2nc3ccc(F)c(F)c3nc2C)c(Br)c1` [IIb.09], the logP was 4.92.
In the case of `Cc1nc2c(F)c(F)ccc2nc1Oc1ccc(F)cc1Br` [IIb.10], the logP is reported as 4.54.
With `Cc1nc2c(F)c(F)ccc2nc1Oc1ccc(Cl)cc1Br` [IIb.11] the logP was 5.16.
`Cc1cccc(Oc2nc3ccc(F)c(F)c3nc2C)c1Br` [IIb.12] showed a logP of 4.85.
`COc1cccc(Oc2nc3ccc(F)c(F)c3nc2C)c1Br` [IIb.13] showed a logP of 4.19.
With `Fc1cccc(Oc2cnc3ccccc3n2)c1Br` [IIb.14] the logP was 3.78.
In the case of `Fc1cccc(Oc2cnc3c(F)c(F)ccc3n2)c1Br` [IIb.15], the logP is reported as 3.97.
With `Cc1nc2c(F)c(F)ccc2nc1Oc1cccc(F)c1Br` [IIb.16] the logP was 4.44.
For `Cc1nc2ccccc2nc1Oc1cccc(F)c1Br` [IIb.17], the logP was 4.11.
`Cc1nc2c(F)c(F)ccc2nc1Oc1cccc(Cl)c1Br` [IIb.18] showed a logP of 4.82.
For `N#Cc1cc(Br)c(Oc2cnc3c(F)c(F)ccc3n2)cc1F` [IIb.19], the logP was 3.81.
Work on `Cc1nc2c(F)c(F)ccc2nc1Oc1cc(C#N)ccc1Br` [IIb.20] yielded a logP of 4.03.
For `N#Cc1ccc(F)c(Br)c1Oc1cnc2c(F)c(F)ccc2n1` [IIb.21], the logP was 3.72.
`Cc1nc2c(F)c(F)ccc2nc1Oc1cccc(C#N)c1Br` [IIb.22] gave a logP of 3.83.
Molecule `Cc1nc2c(F)c(F)ccc2nc1Oc1cccc(OC(F)(F)F)c1Br` [IIb.23] has a logP of 5.08.

Same assay, conditions: reversed-phase HPLC column (C18), Method A: 40° C., 0.1% aqueous formic acid and acetonitrile
Molecule `COc1cccc(Oc2cc3ccc(F)c(F)c3nc2C)c1Br` [IIa.14, 3-(2-bromo-3-methoxyphenoxy)-7,8-difluoro-2-methylquinoline] has a chromatographic logP of 4.11.
`Fc1cccc(Oc2cnc3c(F)c(F)ccc3c2)c1Br` [IIa.15, 3-(2-bromo-3-fluorophenoxy)-7,8-difluoroquinoline] showed a chromatographic logP of 3.9.
`Cc1nc2c(F)c(F)ccc2cc1Oc1cccc(F)c1Br` [IIa.16, 3-(2-bromo-3-fluorophenoxy)-7,8-difluoro-2-methylquinoline] gave a chromatographic logP of 4.29.
With `Cc1c(Oc2cccc(F)c2Br)cnc2ccccc12` [IIa.17, 3-(2-bromo-3-fluorophenoxy)-4-methylquinoline] the chromatographic logP was 3.89.
For `Cc1nc2ccccc2cc1Oc1cccc(F)c1Br` [IIa.18, 3-(2-bromo-3-fluorophenoxy)-2-methylquinoline], the chromatographic logP was 3.58.
Molecule `Fc1cccc(Oc2cc3ccccc3nc2C(F)F)c1Br` [IIa.19, 3-(2-bromo-3-fluorophenoxy)-2-(difluoromethyl)quinoline] has a chromatographic logP of 3.99.
`Cc1nc2c(F)c(F)ccc2cc1Oc1cccc(Cl)c1Br` [IIa.20, 3-(2-bromo-3-chlorophenoxy)-7,8-difluoro-2-methylquinoline] showed a chromatographic logP of 4.72.
Work on `Cc1nc2ccccc2cc1Oc1cccc(Cl)c1Br` [IIa.21, 3-(2-bromo-3-chlorophenoxy)-2-methylquinoline] yielded a chromatographic logP of 3.99.
With `Fc1cccc(Nc2cc3ccccc3nc2C(F)F)c1Br` [IIa.22, N-(2-bromo-3-fluorophenyl)-2-(difluoromethyl)quinolin-3-amine] the chromatographic logP was 4.34.
With `Fc1ccc(Oc2cnc3c(Cl)cccc3c2)c(Cl)c1` [IIa.23, 8-chloro-3-(2-chloro-4-fluorophenoxy)quinoline] the chromatographic logP was 4.11.
Molecule `Cc1nc2c(F)c(F)ccc2cc1Oc1cccc(OC(F)(F)F)c1Br` [IIa.24, 3-[2-bromo-3-(trifluoromethoxy)phenoxy]-7,8-difluoro-2-methylquinoline] has a chromatographic logP of 4.9.
`Cc1nc2ccccc2cc1Oc1ccc(Cl)cc1Br` [IIa.26, 3-(2-bromo-4-chlorophenoxy)-2-methylquinoline] showed a chromatographic logP of 4.13.

Source: patent publication US10683311B2 (priority 2015, dated 2020)
